# Data taken from ChEMBL document CHEMBL6114980, “Single or double lipid-modified ultra-short antimicrobial peptides for treating infections caused by resistant bacteria” (Eur J Med Chem, 2025).
# Active and inactive are the calls of the source. The calls are words filed in the database; no cut-off is given here. Peptide text beside a SMILES is read from it. * marks the point of attachment. Myristoyl = CCCCCCCCCCCCCC(=O)*; Lauroyl = CCCCCCCCCCCC(=O)*; Octanoyl = CCCCCCCC(=O)*
# Assays:
# Acinetobacter baumannii [1] = assay: Antibacterial activity against Acinetobacter baumannii ATCC 19606 assessed as reduction in bacterial growth incubated for 18 to 24 hrs by broth microdilution method; type: functional; conditions: time 18-24 hrs
# Klebsiella pneumoniae = assay: Antibacterial activity against Klebsiella pneumoniae ATCC 700603 assessed as reduction in bacterial growth incubated for 18 to 24 hrs by broth microdilution method; type: functional; conditions: time 18-24 hrs
# Escherichia coli [2] = assay: Antibacterial activity against Escherichia coli ATCC 25922 assessed as reduction in bacterial growth incubated for 18 to 24 hrs by broth microdilution method; type: functional; conditions: time 18-24 hrs
# Pseudomonas aeruginosa [3] = assay: Antibacterial activity against Pseudomonas aeruginosa ATCC 27853 assessed as reduction in bacterial growth incubated for 18 to 24 hrs by broth microdilution method; type: functional; conditions: time 18-24 hrs
# Enterococcus faecalis = assay: Antibacterial activity against Enterococcus faecalis ATCC 29212 assessed as reduction in bacterial growth incubated for 18 to 24 hrs by broth microdilution method; type: functional; conditions: time 18-24 hrs
# [4] = test system: Staphylococcus epidermidis; assay: Antibacterial activity against Staphylococcus epidermidis ATCC 12228 assessed as reduction in bacterial growth incubated for 18 to 24 hrs by broth microdilution method; type: functional; conditions: time 18-24 hrs
# Bacillus subtilis = assay: Antibacterial activity against Bacillus subtilis ATCC 23857 assessed as reduction in bacterial growth incubated for 18 to 24 hrs by broth microdilution method; type: functional; conditions: time 18-24 hrs
# Staphylococcus aureus [5] = assay: Antibacterial activity against Staphylococcus aureus ATCC 25923 assessed as reduction in bacterial growth incubated for 18 to 24 hrs by broth microdilution method; type: functional; conditions: time 18-24 hrs
# Cell membrane [6] = assay: Induction of cytoplasmic membrane depolarization in Escherichia coli assessed as increase in fluorescence intensity at 0.5 to 2 times MIC measured for 10 mins by DiSC3-5 dye based fluorescence assay
# Cell membrane [7] = assay: Induction of cytoplasmic membrane depolarization in Staphylococcus aureus assessed as increase in fluorescence intensity at 0.5 to 4 times MIC measured for 1 mins by DiSC3-5 dye based fluorescence assay
# Staphylococcus aureus [8] = assay: Antibacterial activity against methicillin-resistant Staphylococcus aureus ATCC 33591 assessed as reduction in bacterial growth incubated for 18 to 24 hrs by broth microdilution method; type: functional; conditions: time 18-24 hrs
# Staphylococcus aureus [9] = assay: Antibacterial activity against methicillin-resistant Staphylococcus aureus 75 assessed as reduction in bacterial growth incubated for 18 to 24 hrs by broth microdilution method; type: functional; conditions: time 18-24 hrs
# Staphylococcus aureus [10] = assay: Antibacterial activity against Staphylococcus aureus 113 assessed as reduction in bacterial growth incubated for 18 to 24 hrs by broth microdilution method; type: functional; conditions: time 18-24 hrs
# Staphylococcus aureus [11] = assay: Antibacterial activity against Staphylococcus aureus 125 assessed as reduction in bacterial growth incubated for 18 to 24 hrs by broth microdilution method; type: functional; conditions: time 18-24 hrs
# Staphylococcus aureus [12] = assay: Antibacterial activity against Staphylococcus aureus 794 assessed as reduction in bacterial growth incubated for 18 to 24 hrs by broth microdilution method; type: functional; conditions: time 18-24 hrs
# Acinetobacter baumannii [13] = assay: Antibacterial activity against Acinetobacter baumannii 5444 assessed as reduction in bacterial growth incubated for 18 to 24 hrs by broth microdilution method; type: functional; conditions: time 18-24 hrs
# Acinetobacter baumannii [14] = assay: Antibacterial activity against Acinetobacter baumannii 92359 assessed as reduction in bacterial growth incubated for 18 to 24 hrs by broth microdilution method; type: functional; conditions: time 18-24 hrs
# Escherichia coli [15] = assay: Antibacterial activity against Escherichia coli 850 assessed as reduction in bacterial growth incubated for 18 to 24 hrs by broth microdilution method; type: functional; conditions: time 18-24 hrs
# Escherichia coli [16] = assay: Antibacterial activity against Escherichia coli 780 assessed as reduction in bacterial growth incubated for 18 to 24 hrs by broth microdilution method; type: functional; conditions: time 18-24 hrs
# Pseudomonas aeruginosa [17] = assay: Antibacterial activity against Pseudomonas aeruginosa 124 assessed as reduction in bacterial growth incubated for 18 to 24 hrs by broth microdilution method; type: functional; conditions: time 18-24 hrs
# Pseudomonas aeruginosa [18] = assay: Antibacterial activity against Pseudomonas aeruginosa 6434N assessed as reduction in bacterial growth incubated for 18 to 24 hrs by broth microdilution method; type: functional; conditions: time 18-24 hrs
# Staphylococcus aureus [19] = assay: Bactericidal activity against Staphylococcus aureus 25923 assessed as eradication of bacteria at 2 times MIC measured after 6 hrs by time-kill assay; type: functional, organism-based
# Staphylococcus aureus [20] = assay: Induction of morphological changes in Staphylococcus aureus assessed as cell aggregation adhesion at 2 times MIC measured after 120 mins by SEM analysis; type: functional, organism-based
# Staphylococcus aureus [21] = assay: Induction of cell membrane disruption in Staphylococcus aureus assessed as PI uptake at 2 to 4 times MIC measured after 120 mins by PI staining based flow cytometry analysis; type: functional, organism-based
# Staphylococcus aureus [22] = assay: Antibacterial activity against methicillin resistant Staphylococcus aureus infected in male BALB/c mouse model of skin wound infection assessed as reduction in wound area at 2 mg/kg, ip measured after 10 days post infection relative to control; type: functional; set-up: scale not given: the % may be the effect or the level left; conditions: time 10 day
# Staphylococcus aureus [23] = assay: Antibacterial activity against methicillin resistant Staphylococcus aureus infected in male BALB/c mouse model of skin wound infection assessed as appearance of intact structure of stratum corneum at 2 mg/kg, ip measured after 10 days post infection; type: functional, organism-based; conditions: time 10.0 day
# Staphylococcus aureus [24] = assay: Antibacterial activity against methicillin resistant Staphylococcus aureus infected in male BALB/c mouse model of skin wound infection assessed as healthy development of sebaceous glands at 2 mg/kg, ip measured after 10 days post infection; type: functional, organism-based; conditions: time 10.0 day
# Staphylococcus aureus [25] = assay: Antibacterial activity against methicillin resistant Staphylococcus aureus infected in male BALB/c mouse model of skin wound infection assessed as healthy development of hair follicles at 2 mg/kg, ip measured after 10 days post infection; type: functional, organism-based; conditions: time 10.0 day
smiles,measurement,setting,value
CCCCCCCCCCCC(=O)NCCCC[C@H](NC(=O)CCCCCCCCCCC)C(=O)N[C@@H](CCCCN)C(=O)N[C@@H](CCCCN)C(=O)N[C@@H](Cc1c[nH]c2ccccc12)C(=O)N[C@@H](Cc1c[nH]c2ccccc12)C(N)=O (Lauroyl-K(Lauroyl)KKWW-NH2),MIC,Acinetobacter baumannii [1],128 µM
same,MIC,Klebsiella pneumoniae,128 µM
same,MIC,Escherichia coli [2],128 µM
same,MIC,Pseudomonas aeruginosa [3],128 µM
same,MIC,Enterococcus faecalis,128 µM
same,MIC,[4],128 µM
same,MIC,Bacillus subtilis,128 µM
same,MIC,Staphylococcus aureus [5],128 µM
CCCCCCCCCCCCCC(=O)NCCCC[C@H](NC(=O)CCCCCCCCCCCCC)C(=O)N[C@@H](CCCCN)C(=O)N[C@@H](CCCCN)C(=O)N[C@@H](Cc1c[nH]c2ccccc12)C(=O)N[C@@H](Cc1c[nH]c2ccccc12)C(N)=O (Myristoyl-K(Myristoyl)KKWW-NH2),MIC,Acinetobacter baumannii [1],128 µM
same,MIC,Klebsiella pneumoniae,128 µM
same,MIC,Escherichia coli [2],128 µM
same,MIC,Pseudomonas aeruginosa [3],128 µM
same,MIC,Enterococcus faecalis,128 µM
same,MIC,[4],128 µM
same,MIC,Bacillus subtilis,128 µM
same,MIC,Staphylococcus aureus [5],128 µM
CCCCCCCCCCCCCC(=O)N[C@@H](CCCCN)C(=O)N[C@@H](CCCCN)C(=O)N[C@@H](Cc1c[nH]c2ccccc12)C(=O)N[C@@H](Cc1c[nH]c2ccccc12)C(N)=O (Myristoyl-KKWW-NH2),MIC,Acinetobacter baumannii [1],32 µM
same,MIC,Klebsiella pneumoniae,32 µM
same,MIC,Escherichia coli [2],32 µM
same,MIC,Pseudomonas aeruginosa [3],16 µM
same,MIC,Enterococcus faecalis,8 µM
same,MIC,[4],4 µM
same,MIC,Bacillus subtilis,2 µM
same,MIC,Staphylococcus aureus [5],4 µM
same,Activity,Cell membrane [6],Active; Compound Showed Similar Effect As Quality Control Polymyxin B
same,Activity,Cell membrane [7],Active
CCCCCCCC(=O)N[C@@H](CCCCN)C(=O)N[C@@H](CCCCN)C(=O)N[C@@H](Cc1c[nH]c2ccccc12)C(=O)N[C@@H](Cc1c[nH]c2ccccc12)C(N)=O (Octanoyl-KKWW-NH2),MIC,Acinetobacter baumannii [1],128 µM
same,MIC,Klebsiella pneumoniae,128 µM
same,MIC,Escherichia coli [2],64 µM
same,MIC,Pseudomonas aeruginosa [3],16 µM
same,MIC,Enterococcus faecalis,128 µM
same,MIC,[4],32 µM
same,MIC,Bacillus subtilis,4 µM
same,MIC,Staphylococcus aureus [5],32 µM
CC(=O)OCC1=C(C(=O)O)N2C(=O)[C@@H](NC(=O)Cc3cccs3)[C@H]2SC1 [CEPHALOTHIN],MIC,Acinetobacter baumannii [1],32 µM
same,MIC,Klebsiella pneumoniae,16 µM
same,MIC,Escherichia coli [2],1 µM
same,MIC,Pseudomonas aeruginosa [3],16 µM
same,MIC,Staphylococcus aureus [8],128 µM
same,MIC,Staphylococcus aureus [9],128 µM
same,MIC,Staphylococcus aureus [10],8 µM
same,MIC,Staphylococcus aureus [11],1 µM
same,MIC,Staphylococcus aureus [12],128 µM
same,MIC,Enterococcus faecalis,4 µM
same,MIC,[4],1 µM
same,MIC,Bacillus subtilis,1 µM
same,MIC,Staphylococcus aureus [5],1 µM
same,MIC,Acinetobacter baumannii [13],128 µM
same,MIC,Acinetobacter baumannii [14],128 µM
same,MIC,Escherichia coli [15],8 µM
same,MIC,Escherichia coli [16],1 µM
same,MIC,Pseudomonas aeruginosa [17],128 µM
same,MIC,Pseudomonas aeruginosa [18],16 µM
COc1cccc(OC)c1C(=O)N[C@@H]1C(=O)N2[C@@H]1SC(C)(C)[C@@H]2C(=O)O [METHICILLIN],MIC,Acinetobacter baumannii [1],128 µM
same,MIC,Klebsiella pneumoniae,128 µM
same,MIC,Escherichia coli [2],128 µM
same,MIC,Pseudomonas aeruginosa [3],128 µM
same,MIC,Staphylococcus aureus [8],128 µM
same,MIC,Staphylococcus aureus [9],128 µM
same,MIC,Staphylococcus aureus [10],8 µM
same,MIC,Staphylococcus aureus [11],2 µM
same,MIC,Staphylococcus aureus [12],128 µM
same,MIC,Enterococcus faecalis,128 µM
same,MIC,[4],4 µM
same,MIC,Bacillus subtilis,2 µM
same,MIC,Staphylococcus aureus [5],1 µM
same,MIC,Acinetobacter baumannii [13],128 µM
same,MIC,Acinetobacter baumannii [14],128 µM
same,MIC,Escherichia coli [15],128 µM
same,MIC,Escherichia coli [16],128 µM
same,MIC,Pseudomonas aeruginosa [17],128 µM
same,MIC,Pseudomonas aeruginosa [18],128 µM
CN[C@@H]1[C@H](O[C@H]2[C@H](O[C@H]3[C@H](O)[C@@H](O)[C@H](N=C(N)N)[C@@H](O)[C@@H]3N=C(N)N)O[C@@H](C)[C@]2(O)C=O)O[C@@H](CO)[C@H](O)[C@H]1O [STREPTOMYCIN],MIC,Acinetobacter baumannii [1],64 µM
same,MIC,Klebsiella pneumoniae,1 µM
same,MIC,Escherichia coli [2],4 µM
same,MIC,Pseudomonas aeruginosa [3],2 µM
same,MIC,Staphylococcus aureus [8],64 µM
same,MIC,Staphylococcus aureus [9],64 µM
same,MIC,Staphylococcus aureus [10],128 µM
same,MIC,Staphylococcus aureus [11],128 µM
same,MIC,Staphylococcus aureus [12],128 µM
same,MIC,Enterococcus faecalis,16 µM
same,MIC,[4],1 µM
same,MIC,Bacillus subtilis,1 µM
same,MIC,Staphylococcus aureus [5],1 µM
same,MIC,Acinetobacter baumannii [13],128 µM
same,MIC,Acinetobacter baumannii [14],128 µM
same,MIC,Escherichia coli [15],32 µM
same,MIC,Escherichia coli [16],128 µM
same,MIC,Pseudomonas aeruginosa [17],4 µM
same,MIC,Pseudomonas aeruginosa [18],2 µM
CN[C@H](CC(C)C)C(=O)N[C@H]1C(=O)N[C@@H](CC(N)=O)C(=O)N[C@H]2C(=O)N[C@H]3C(=O)N[C@H](C(=O)N[C@H](C(=O)O)c4cc(O)cc(O)c4-c4cc3ccc4O)[C@H](O)c3ccc(c(Cl)c3)Oc3cc2cc(c3O[C@@H]2O[C@H](CO)[C@@H](O)[C@H](O)[C@H]2O[C@H]2C[C@](C)(N)[C@H](O)[C@H](C)O2)Oc2ccc(cc2Cl)[C@H]1O [VANCOMYCIN],Activity,Staphylococcus aureus [19],inactive
same,Activity,Staphylococcus aureus [20],inactive
same,Activity,Staphylococcus aureus [21],inactive
same,Activity,Staphylococcus aureus [22],<20%
same,Activity,Staphylococcus aureus [23],Active
same,Activity,Staphylococcus aureus [24],Active
same,Activity,Staphylococcus aureus [25],Active
